Assay: xn = mol fraction of the nth substance listed
Conditions: Fluid (supercritical or subcritical phases), Taylor dispersion method, x1 = 0

## CCCCC/C=C\C/C=C\CCCCCCCC(=O)O [(Z,Z)-9,12-octadecadienoic acid] + O=C=O
308.15 K, 8500 kPa
  binary diffusion coefficient: 8.7e-09 m2/s
308.15 K, 8970 kPa
  binary diffusion coefficient: 8.31e-09 m2/s
308.15 K, 10000 kPa
  binary diffusion coefficient: 7.53e-09 m2/s
308.15 K, 11020 kPa
  binary diffusion coefficient: 7.33e-09 m2/s
308.15 K, 12000 kPa
  binary diffusion coefficient: 6.89e-09 m2/s
308.15 K, 14000 kPa
  binary diffusion coefficient: 6.45e-09 m2/s
308.15 K, 16010 kPa
  binary diffusion coefficient: 6.13e-09 m2/s
308.15 K, 17470 kPa
  binary diffusion coefficient: 6.02e-09 m2/s
308.15 K, 18020 kPa
  binary diffusion coefficient: 5.9e-09 m2/s
308.15 K, 20000 kPa
  binary diffusion coefficient: 5.85e-09 m2/s
308.15 K, 21000 kPa
  binary diffusion coefficient: 5.71e-09 m2/s
308.15 K, 22030 kPa
  binary diffusion coefficient: 5.69e-09 m2/s
308.15 K, 25000 kPa
  binary diffusion coefficient: 5.26e-09 m2/s
308.15 K, 26000 kPa
  binary diffusion coefficient: 5.2e-09 m2/s
308.15 K, 28050 kPa
  binary diffusion coefficient: 5.05e-09 m2/s
308.15 K, 30300 kPa
  binary diffusion coefficient: 4.96e-09 m2/s
313.21 K, 9490 kPa
  binary diffusion coefficient: 9.47e-09 m2/s
313.21 K, 10040 kPa
  binary diffusion coefficient: 8.74e-09 m2/s
313.21 K, 10990 kPa
  binary diffusion coefficient: 8.03e-09 m2/s
313.21 K, 12000 kPa
  binary diffusion coefficient: 7.7e-09 m2/s
313.21 K, 14020 kPa
  binary diffusion coefficient: 7.17e-09 m2/s
313.21 K, 15980 kPa
  binary diffusion coefficient: 6.75e-09 m2/s
313.21 K, 17980 kPa
  binary diffusion coefficient: 6.47e-09 m2/s
313.21 K, 20000 kPa
  binary diffusion coefficient: 6.13e-09 m2/s
313.21 K, 21990 kPa
  binary diffusion coefficient: 5.97e-09 m2/s
313.21 K, 24000 kPa
  binary diffusion coefficient: 5.77e-09 m2/s
313.21 K, 26010 kPa
  binary diffusion coefficient: 5.63e-09 m2/s
313.21 K, 27990 kPa
  binary diffusion coefficient: 5.46e-09 m2/s
313.21 K, 30040 kPa
  binary diffusion coefficient: 5.49e-09 m2/s
313.21 K, 30110 kPa
  binary diffusion coefficient: 5.39e-09 m2/s
323.15 K, 12020 kPa
  binary diffusion coefficient: 8.9e-09 m2/s
323.15 K, 12510 kPa
  binary diffusion coefficient: 9.15e-09 m2/s
323.15 K, 13000 kPa
  binary diffusion coefficient: 8.86e-09 m2/s
323.15 K, 14000 kPa
  binary diffusion coefficient: 8.58e-09 m2/s
323.15 K, 16000 kPa
  binary diffusion coefficient: 7.76e-09 m2/s
323.15 K, 18000 kPa
  binary diffusion coefficient: 7.39e-09 m2/s
323.15 K, 20010 kPa
  binary diffusion coefficient: 7.06e-09 m2/s
323.15 K, 22000 kPa
  binary diffusion coefficient: 6.83e-09 m2/s
323.15 K, 24000 kPa
  binary diffusion coefficient: 6.57e-09 m2/s
323.15 K, 26000 kPa
  binary diffusion coefficient: 6.37e-09 m2/s
323.15 K, 28020 kPa
  binary diffusion coefficient: 6.12e-09 m2/s
323.15 K, 30290 kPa
  binary diffusion coefficient: 5.9e-09 m2/s
333.15 K, 13890 kPa
  binary diffusion coefficient: 9.59e-09 m2/s
333.15 K, 14480 kPa
  binary diffusion coefficient: 9.99e-09 m2/s
333.15 K, 15000 kPa
  binary diffusion coefficient: 9.67e-09 m2/s
333.15 K, 15980 kPa
  binary diffusion coefficient: 9.33e-09 m2/s
333.15 K, 18000 kPa
  binary diffusion coefficient: 8.66e-09 m2/s
333.15 K, 20000 kPa
  binary diffusion coefficient: 8.28e-09 m2/s
333.15 K, 20050 kPa
  binary diffusion coefficient: 8.17e-09 m2/s
333.15 K, 22000 kPa
  binary diffusion coefficient: 7.82e-09 m2/s
333.15 K, 24020 kPa
  binary diffusion coefficient: 7.58e-09 m2/s
333.15 K, 26060 kPa
  binary diffusion coefficient: 7.21e-09 m2/s
333.15 K, 27020 kPa
  binary diffusion coefficient: 7.14e-09 m2/s
333.15 K, 28020 kPa
  binary diffusion coefficient: 7.03e-09 m2/s
333.15 K, 29040 kPa
  binary diffusion coefficient: 6.99e-09 m2/s
333.15 K, 30070 kPa
  binary diffusion coefficient: 6.82e-09 m2/s
343.15 K, 16200 kPa
  binary diffusion coefficient: 1.02e-08 m2/s
343.15 K, 16210 kPa
  binary diffusion coefficient: 1.04e-08 m2/s
343.15 K, 16990 kPa
  binary diffusion coefficient: 1.02e-08 m2/s
343.15 K, 17990 kPa
  binary diffusion coefficient: 9.85e-09 m2/s
343.15 K, 18000 kPa
  binary diffusion coefficient: 9.84e-09 m2/s
343.15 K, 18990 kPa
  binary diffusion coefficient: 9.43e-09 m2/s
343.15 K, 20000 kPa
  binary diffusion coefficient: 9.01e-09 m2/s
343.15 K, 20040 kPa
  binary diffusion coefficient: 9.18e-09 m2/s
343.15 K, 22000 kPa
  binary diffusion coefficient: 8.71e-09 m2/s
343.15 K, 24000 kPa
  binary diffusion coefficient: 8.37e-09 m2/s
343.15 K, 26010 kPa
  binary diffusion coefficient: 8.11e-09 m2/s
343.15 K, 26990 kPa
  binary diffusion coefficient: 7.88e-09 m2/s
343.15 K, 28010 kPa
  binary diffusion coefficient: 7.77e-09 m2/s
343.15 K, 29050 kPa
  binary diffusion coefficient: 7.81e-09 m2/s
343.15 K, 30030 kPa
  binary diffusion coefficient: 7.64e-09 m2/s

## CCCCCC=CCC=CCC=CCC=CCCCC(=O)O [5,8,11,14-eicosatetraenoic acid] + O=C=O
308.15 K, 9500 kPa
  binary diffusion coefficient: 7.5e-09 m2/s
308.15 K, 10000 kPa
  binary diffusion coefficient: 7.17e-09 m2/s
308.15 K, 10520 kPa
  binary diffusion coefficient: 7.03e-09 m2/s
308.15 K, 10870 kPa
  binary diffusion coefficient: 6.75e-09 m2/s
308.15 K, 11000 kPa
  binary diffusion coefficient: 6.58e-09 m2/s
308.15 K, 11500 kPa
  binary diffusion coefficient: 6.57e-09 m2/s
308.15 K, 12010 kPa
  binary diffusion coefficient: 6.7e-09 m2/s
308.15 K, 12020 kPa
  binary diffusion coefficient: 6.48e-09 m2/s
308.15 K, 12490 kPa
  binary diffusion coefficient: 6.27e-09 m2/s
308.15 K, 12990 kPa
  binary diffusion coefficient: 6.18e-09 m2/s
308.15 K, 14000 kPa
  binary diffusion coefficient: 6.17e-09 m2/s
308.15 K, 15990 kPa
  binary diffusion coefficient: 5.9e-09 m2/s
308.15 K, 17990 kPa
  binary diffusion coefficient: 5.63e-09 m2/s
308.15 K, 20010 kPa
  binary diffusion coefficient: 5.48e-09 m2/s
308.15 K, 22000 kPa
  binary diffusion coefficient: 5.38e-09 m2/s
308.15 K, 24000 kPa
  binary diffusion coefficient: 5.25e-09 m2/s
308.15 K, 26000 kPa
  binary diffusion coefficient: 5.11e-09 m2/s
308.15 K, 28010 kPa
  binary diffusion coefficient: 5.02e-09 m2/s
308.15 K, 30240 kPa
  binary diffusion coefficient: 4.99e-09 m2/s
308.15 K, 30490 kPa
  binary diffusion coefficient: 4.85e-09 m2/s
313.21 K, 9500 kPa
  binary diffusion coefficient: 9.04e-09 m2/s
313.21 K, 10000 kPa
  binary diffusion coefficient: 8.41e-09 m2/s
313.21 K, 11010 kPa
  binary diffusion coefficient: 7.76e-09 m2/s
313.21 K, 12010 kPa
  binary diffusion coefficient: 7.1e-09 m2/s
313.21 K, 14000 kPa
  binary diffusion coefficient: 6.66e-09 m2/s
313.21 K, 16000 kPa
  binary diffusion coefficient: 6.29e-09 m2/s
313.21 K, 18000 kPa
  binary diffusion coefficient: 6.06e-09 m2/s
313.21 K, 20000 kPa
  binary diffusion coefficient: 5.78e-09 m2/s
313.21 K, 22010 kPa
  binary diffusion coefficient: 5.64e-09 m2/s
313.21 K, 24010 kPa
  binary diffusion coefficient: 5.53e-09 m2/s
313.21 K, 26010 kPa
  binary diffusion coefficient: 5.36e-09 m2/s
313.21 K, 28020 kPa
  binary diffusion coefficient: 5.24e-09 m2/s
313.21 K, 30040 kPa
  binary diffusion coefficient: 5.1e-09 m2/s
313.21 K, 30130 kPa
  binary diffusion coefficient: 5.1e-09 m2/s
323.15 K, 12010 kPa
  binary diffusion coefficient: 9.02e-09 m2/s
323.15 K, 12500 kPa
  binary diffusion coefficient: 9.07e-09 m2/s
323.15 K, 13020 kPa
  binary diffusion coefficient: 8.66e-09 m2/s
323.15 K, 13480 kPa
  binary diffusion coefficient: 8.28e-09 m2/s
323.15 K, 14010 kPa
  binary diffusion coefficient: 8.15e-09 m2/s
323.15 K, 15990 kPa
  binary diffusion coefficient: 7.44e-09 m2/s
323.15 K, 18000 kPa
  binary diffusion coefficient: 7.03e-09 m2/s
323.15 K, 20020 kPa
  binary diffusion coefficient: 6.78e-09 m2/s
323.15 K, 21990 kPa
  binary diffusion coefficient: 6.42e-09 m2/s
323.15 K, 24000 kPa
  binary diffusion coefficient: 6.21e-09 m2/s
323.15 K, 26000 kPa
  binary diffusion coefficient: 6.02e-09 m2/s
323.15 K, 28020 kPa
  binary diffusion coefficient: 5.88e-09 m2/s
323.15 K, 30050 kPa
  binary diffusion coefficient: 5.64e-09 m2/s
323.15 K, 30060 kPa
  binary diffusion coefficient: 5.82e-09 m2/s
333.15 K, 13890 kPa
  binary diffusion coefficient: 1.05e-08 m2/s
333.15 K, 15030 kPa
  binary diffusion coefficient: 9.16e-09 m2/s
333.15 K, 15500 kPa
  binary diffusion coefficient: 9.04e-09 m2/s
333.15 K, 16980 kPa
  binary diffusion coefficient: 8.47e-09 m2/s
333.15 K, 17500 kPa
  binary diffusion coefficient: 8.32e-09 m2/s
333.15 K, 19010 kPa
  binary diffusion coefficient: 7.91e-09 m2/s
333.15 K, 19990 kPa
  binary diffusion coefficient: 7.67e-09 m2/s
333.15 K, 22010 kPa
  binary diffusion coefficient: 7.26e-09 m2/s
333.15 K, 24000 kPa
  binary diffusion coefficient: 7.01e-09 m2/s
333.15 K, 26010 kPa
  binary diffusion coefficient: 6.81e-09 m2/s
333.15 K, 26060 kPa
  binary diffusion coefficient: 6.78e-09 m2/s
333.15 K, 28030 kPa
  binary diffusion coefficient: 6.68e-09 m2/s
333.15 K, 30160 kPa
  binary diffusion coefficient: 6.49e-09 m2/s
343.15 K, 16200 kPa
  binary diffusion coefficient: 1.01e-08 m2/s
343.15 K, 16990 kPa
  binary diffusion coefficient: 9.57e-09 m2/s
343.15 K, 17490 kPa
  binary diffusion coefficient: 9.45e-09 m2/s
343.15 K, 18010 kPa
  binary diffusion coefficient: 9.14e-09 m2/s
343.15 K, 18990 kPa
  binary diffusion coefficient: 8.93e-09 m2/s
343.15 K, 19990 kPa
  binary diffusion coefficient: 8.61e-09 m2/s
343.15 K, 21000 kPa
  binary diffusion coefficient: 8.46e-09 m2/s
343.15 K, 22010 kPa
  binary diffusion coefficient: 8.32e-09 m2/s
343.15 K, 22980 kPa
  binary diffusion coefficient: 7.87e-09 m2/s
343.15 K, 23990 kPa
  binary diffusion coefficient: 7.79e-09 m2/s
343.15 K, 26000 kPa
  binary diffusion coefficient: 7.58e-09 m2/s
343.15 K, 28000 kPa
  binary diffusion coefficient: 7.12e-09 m2/s
343.15 K, 28050 kPa
  binary diffusion coefficient: 7.3e-09 m2/s
343.15 K, 30260 kPa
  binary diffusion coefficient: 7.13e-09 m2/s
